Experimental findings from the NIST ThermoML archive (doi:10.1021/acs.jced.5b00662) are described below.

Numbers after ± are expanded uncertainties.

A word on the refractive index: it is a measure of how strongly the sample bends light.

The first data set in a line: refractive index (Na D-line) (dimensionless). As to conditions: 283.15 K; 101.33 kPa; Liquid; Standard Abbe refractometry.
As to `OCCOCCOCCO` [triethylene glycol], the refractive index is 1.45944 ± 0.00061.
The same measure, in the same setting: next, `CCOCCOCCOCC` [diethylene glycol diethyl ether]: 1.41658 ± 0.0007; `COCCOCCO` [2-(2-methoxyethoxy)ethanol]: 1.42914 ± 0.00061.
Same read-out and setting: next, `COCCOCCOCCOC` [2,5,8,11-tetraoxadodecane]: 1.42712 ± 0.00061; `OCCO` [1,2-ethanediol]: 1.43461 ± 0.00058.

The same data set, now with this note: 288.15 K; 101.33 kPa; Liquid; Standard Abbe refractometry.
Turning to `OCCOCCOCCO` [triethylene glycol], the refractive index amounted to 1.45774 ± 0.00061.
The same measure, in the same setting: next, `CCOCCOCCOCC` [diethylene glycol diethyl ether]: 1.41428 ± 0.0007; `COCCOCCO` [2-(2-methoxyethoxy)ethanol]: 1.42723 ± 0.00061.
The same measure, in the same setting: next, `COCCOCCOCCOC` [2,5,8,11-tetraoxadodecane]: 1.42498 ± 0.00061; `OCCO` [1,2-ethanediol]: 1.43312 ± 0.00058.

The same data set, now with this note: 293.15 K; 101.33 kPa; Liquid; Standard Abbe refractometry.
Turning to `OCCOCCOCCO` [triethylene glycol], the refractive index came to 1.4561 ± 0.00061.
Same read-out and setting: next, `CCOCCOCCOCC` [diethylene glycol diethyl ether]: 1.41202 ± 0.0007; `COCCOCCO` [2-(2-methoxyethoxy)ethanol]: 1.42498 ± 0.00061; `COCCOCCOCCOC` [2,5,8,11-tetraoxadodecane]: 1.42284 ± 0.00061.
The same measure, in the same setting: next, `OCCO` [1,2-ethanediol]: 1.43167 ± 0.00058.

Staying with this data set, now noted: 298.15 K; 101.33 kPa; Liquid; Standard Abbe refractometry.
In the case of `OCCOCCOCCO` [triethylene glycol], the refractive index worked out at 1.45447 ± 0.00061.
Consider `CCOCCOCCOCC` [diethylene glycol diethyl ether], for which the refractive index was 1.40978 ± 0.0007.
As for `COCCOCCO` [2-(2-methoxyethoxy)ethanol], the refractive index is on record as 1.4239 ± 0.00061.
The same measure, in the same setting: next, `COCCOCCOCCOC` [2,5,8,11-tetraoxadodecane]: 1.42071 ± 0.00061.
As for `OCCO` [1,2-ethanediol], the refractive index is listed as 1.43 ± 0.00058.

Still in this data set, the particulars now being: 303.15 K; 101.33 kPa; Liquid; Standard Abbe refractometry.
For the compound `OCCOCCOCCO` [triethylene glycol], the refractive index is on record as 1.45283 ± 0.00061.
Same read-out and setting: next, `CCOCCOCCOCC` [diethylene glycol diethyl ether]: 1.40749 ± 0.0007; `COCCOCCO` [2-(2-methoxyethoxy)ethanol]: 1.42174 ± 0.00061; `COCCOCCOCCOC` [2,5,8,11-tetraoxadodecane]: 1.41862 ± 0.00061.
The same measure, in the same setting: next, `OCCO` [1,2-ethanediol]: 1.42855 ± 0.00058.

The data set is the same for the next values; noted with them: 313.15 K; 101.33 kPa; Liquid; Standard Abbe refractometry.
Consider `OCCOCCOCCO` [triethylene glycol], for which the refractive index is 1.44955 ± 0.00061.
On the same count and under the same terms, next, `CCOCCOCCOCC` [diethylene glycol diethyl ether]: 1.40296 ± 0.0007.
As to `COCCOCCO` [2-(2-methoxyethoxy)ethanol], the refractive index was 1.41733 ± 0.00061.
On the same count and under the same terms, next, `COCCOCCOCCOC` [2,5,8,11-tetraoxadodecane]: 1.41434 ± 0.00061; `OCCO` [1,2-ethanediol]: 1.42562 ± 0.00058.

Staying with this data set, now noted: 323.15 K; 101.33 kPa; Liquid; Standard Abbe refractometry.
`OCCOCCOCCO` [triethylene glycol]: the refractive index worked out at 1.44626 ± 0.00061.
On the same count and under the same terms, next, `CCOCCOCCOCC` [diethylene glycol diethyl ether]: 1.39838 ± 0.0007; `COCCOCCO` [2-(2-methoxyethoxy)ethanol]: 1.41368 ± 0.00061.
Still for that read-out and setting: next, `COCCOCCOCCOC` [2,5,8,11-tetraoxadodecane]: 1.41005 ± 0.00061.
As for `OCCO` [1,2-ethanediol], the refractive index stood at 1.4226 ± 0.00058.

Still in this data set, the particulars now being: 333.15 K; 101.33 kPa; Liquid; Standard Abbe refractometry.
As for `OCCOCCOCCO` [triethylene glycol], the refractive index turned out to be 1.44293 ± 0.00061.
Still for that read-out and setting: next, `CCOCCOCCOCC` [diethylene glycol diethyl ether]: 1.39382 ± 0.0007; `COCCOCCO` [2-(2-methoxyethoxy)ethanol]: 1.4101 ± 0.00061.
On to `COCCOCCOCCOC` [2,5,8,11-tetraoxadodecane], for which the refractive index is 1.40579 ± 0.00061.
Same read-out and setting: next, `OCCO` [1,2-ethanediol]: 1.41955 ± 0.00058.

The same data set, now with this note: 343.15 K; 101.33 kPa; Liquid; Standard Abbe refractometry.
Take `OCCOCCOCCO` [triethylene glycol]: the refractive index turned out to be 1.43956 ± 0.00061.
Still for that read-out and setting: next, `CCOCCOCCOCC` [diethylene glycol diethyl ether]: 1.38929 ± 0.0007; `COCCOCCO` [2-(2-methoxyethoxy)ethanol]: 1.40635 ± 0.00061.
Same read-out and setting: next, `COCCOCCOCCOC` [2,5,8,11-tetraoxadodecane]: 1.40153 ± 0.00061; `OCCO` [1,2-ethanediol]: 1.41655 ± 0.00058.

The same data set, now with this note: 353.15 K; 101.33 kPa; Liquid; Standard Abbe refractometry.
As to `OCCOCCOCCO` [triethylene glycol], the refractive index stood at 1.43622 ± 0.00061.
Consider `CCOCCOCCOCC` [diethylene glycol diethyl ether], for which the refractive index is 1.38474 ± 0.0007.
With `COCCOCCO` [2-(2-methoxyethoxy)ethanol], the refractive index was determined as 1.40241 ± 0.00061.
Same read-out and setting: next, `COCCOCCOCCOC` [2,5,8,11-tetraoxadodecane]: 1.39723 ± 0.00061; `OCCO` [1,2-ethanediol]: 1.41351 ± 0.00058.
